Like-named read-outs stand apart in the source and are kept apart here.
Legend:
[1] = tested on: Leishmania donovani amastigote forms; experiment: Amastigote test (intracellular forms in J774.2 macrophages), L. donovani; type: cell-based; settings: 72 h, mean ± SD
Method: (§1) Promastigote forms of three different Leishmania spp., L. donovani (MHOM/PE/84/LC26), L. infantum (MCAN/ES/2001/UCM-10) and L. braziliensis (MHOM/BR/1975/M2904), were cultured in vitro in Medium Trypanosomes Liquid (MTL) supplemented with 10% inactivated foetal calf serum (FCS) in an air atmosphere at 28 °C, in Roux flasks (Corning, Manassas, VA, USA) with a surface area of 75 cm^2, according to [33].
(§2) The compounds and the reference drug Glu were dissolved in DMSO (Panreac, Barcelona, Spain) and tested from 100 µM to 1 µM with 0.1% (v/v) DMSO final concentration in plates. Therefore, controls were prepared including 0.1% (v/v) of this component, as previously described.
(§3) J774.2 macrophages were grown and seeded at a density of 1 × 10^4 cells/well in 24-well microplates (Nunc) with rounded coverslips on the bottom and cultured for 48 h in humidified 95% air, 5% CO2 atmosphere at 37 °C in Minimal Essential Medium (MEM) with 2 mM glutamine and 20% (v/v) inactivated FCS. Adherent macrophages were infected with metacyclic promastigotes in the stationary growth phase of L. donovani, L. infantum and L. braziliensis at a multiplicity of infection (MOI) ratio of 1:10 and maintained for 24 h. Non-phagocytosed parasites were removed by washing, and after addition of the testing compounds at concentrations from 100 µM to 1 µM, cultured in 500 μL/well volumes. Control cultures were also included. After 72 h incubation, leishmanicidal activity was assessed based on the number of amastigotes in treated and untreated cultures in methanol-fixed and Giemsa-stained preparations by analyzing 500 host cells distributed in randomly chosen microscopic fields. The leishmanicidal effect was calculated as described to determine the leishmanicidal activity in the promastigote forms. Each drug concentration was tested in triplicate in four separate determinations.

[2] = tested on: Leishmania infantum promastigote forms; experiment: Promastigote test (extracellular forms), L. infantum; type: cell-based; settings: 72 h, 100 µM to 1 µM, mean ± SD of four determinations
Method: as §1, §2
(§4) Promastigote forms were collected in the exponential growth phase and seeded at 1 × 10^5 parasites/mL in 24-well microplates (Nunc, Naperville, IL, USA), after adding each compound at concentrations from 100 µM to 1 µM and cultured in 500 μL/well volumes at 28 °C. After 72 h incubation, the leishmanicidal activity was assessed using a Neubauer haemocytometric chamber in comparison with the control cultures. […] Each drug concentration was tested in triplicate in four separate determinations.

[3] = tested on: J774.2 murine macrophages; experiment: Cytotoxicity test on macrophages by flow cytometry; type: cell-based, mouse; settings: J774.2 macrophages, 72 h, read-out: Toxicity IC50 Macrophage
Method: as §2
The macrophage line J774.2 [European collection of cell cultures (ECACC) number 91051511] was derived in 1968 from a tumour in a female BALB/c mouse. Macrophages were grown in humidified 95% air, 5% CO2 atmosphere at 37 °C in Minimal Essential Medium (MEM) with 2 mM glutamine and 20% (v/v) inactivated FCS. The cytotoxicity test on macrophages was performed by Flow cytometry analysis according to a method previously described. Briefly, cells were seeded at a density of 5 × 10^4 cells/well in 24-well microplates (Nunc, Naperville, IL, USA). After 48 h incubation, the medium was removed, and fresh medium was added together with each test compound at concentrations from 100 µM to 1 µM and cultured in 500 μL/well volumes for 72 h. Thereafter, cells were recovered by centrifugation, and cell viability was determined by Flow cytometry (FACS Vantage flow cytometer, Becton Dickinson, San Jose, CA, USA) after incubating the cells with propidium iodide ([…]) and fluorescein diacetate (100 ng/mL). The percentage of viability was calculated in comparison with the control cultures. […] Each drug concentration was tested in triplicate in four separate determinations.

[4] = tested on: Leishmania infantum amastigote forms; experiment: Amastigote test (intracellular forms in J774.2 macrophages), L. infantum; type: cell-based; settings: 72 h, mean ± SD
Method: as §1, §2, §3

[5] = tested on: Leishmania braziliensis amastigote forms; experiment: Amastigote test (intracellular forms in J774.2 macrophages), L. braziliensis; type: cell-based; settings: 72 h, mean ± SD
Method: as §1, §2, §3

[6] = tested on: Leishmania braziliensis promastigote forms; experiment: Promastigote test (extracellular forms), L. braziliensis; type: cell-based; settings: 72 h, 100 µM to 1 µM, mean ± SD
Method: as §1, §2, §4

[7] = tested on: Leishmania donovani promastigote forms; experiment: Promastigote test (extracellular forms), L. donovani; type: cell-based; settings: 72 h, 100 µM to 1 µM, mean ± SD
Method: as §1, §2, §4

[8] = tested on: L. braziliensis promastigotes; experiment: Ultrastructural alterations by TEM, L. braziliensis; type: cell-based, Leishmania braziliensis; settings: 72 h at IC25 concentration
Method: (§5) Parasites were cultured at a density of 5 × 10^5 cells/mL with medium containing the tested compounds at IC25 concentrations. After 72 h at 28 °C, the cultures were processed using a technique previously described and analysed by TEM (LIBRA 120 PLUS, Zeiss, Barcelona, Spain).

[9] = tested on: L. donovani promastigotes; experiment: Ultrastructural alterations by TEM, L. donovani; type: cell-based, Leishmania donovani; settings: 72 h at IC25 concentration
Method: as §5

[10] = tested on: Leishmania infantum infection of J774.2 macrophages; experiment: Infectivity assay, L. infantum; type: cell-based; settings: IC25 concentration; 10-day infectivity assay
Method: (§6) After the initial in vitro studies we were interested in finding out if the six most leishmanicidal compounds could also prevent the infection of host cells. For this reason, we conducted an assay in which the J774.2 macrophages were exposed to the metacyclic promastigotes and the compound at IC25 concentration at the same time. The propagation of the parasitic infection was determined by measuring the infection rate and the average number of amastigotes per macrophage cell present during the 10-day treatment period. In addition, the endocytic (short-time of infection) and infection (long-time of infection) indexes were calculated.
(§7) Adherent macrophages were grown, seeded and infected with metacyclic promastigotes as mentioned above. The compounds at IC25 concentrations (calculated using linear regression analysis from the Kc values of the concentrations employed) were added immediately after infection and incubation was performed for 12 h at 37 °C in humidified 95% air, 5% CO2 atmosphere. in humidified 95% air, 5% CO2 atmosphere at 37 °C Non-phagocytosed parasites and drugs were removed by washing, and then the infected cultures were grown for 10 days, adding fresh culture medium every 48 h, according to [35]. Amastigotes per macrophage count was determined in methanol-fixed and Giemsa-stained preparations as mentioned above every 48 h. […]

[11] = tested on: L. infantum promastigotes; experiment: Ultrastructural alterations by TEM, L. infantum; type: cell-based, Leishmania infantum; settings: 72 h at IC25 concentration
Method: as §5

human CuZn-SOD = target: T1, human CuZn-SOD (Homo sapiens, UniProt P00441); experiment: SOD inhibition assay, human CuZn-SOD; type: biochemical; settings: assayed 100 µM to 0.1 µM; non-linear regression
T1 construct: purchased Sigma Chemical Co. (St. Louis, MO, USA)
T1 sequence (P00441 whole entry): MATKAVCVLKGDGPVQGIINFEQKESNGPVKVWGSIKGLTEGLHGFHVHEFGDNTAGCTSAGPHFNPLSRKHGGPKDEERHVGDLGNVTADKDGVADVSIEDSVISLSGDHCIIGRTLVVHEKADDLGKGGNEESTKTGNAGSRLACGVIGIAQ
Method: The previous extraordinary results prompted us to evaluate the inhibitory effect of 3, 5–8 and 10 on the SOD activity. […]
(§8) Parasite cells were collected in the exponential growth phase by centrifugation (400g for 10 min). The pellet obtained after centrifugation was lysated by sonication, processed according to [38] and obtained the homogenate fraction which contained the parasite Fe-SOD. The protein content was quantified using the Sigma Bradford test, which uses BSA as a standard (no trace ability was certified for the BSA standard). Superoxide dismutase activities were determined using a method previously described, which measures the reduction in nitrobluetetrazolium (NBT) by superoxide ions. Human CuZn-SOD. Substrates used in these assays were obtained from Sigma Chemical Co. (St. Louis, MO, USA). Resulting data were analysed using the Newman−Keuls test.

[12] = tested on: L. infantum promastigotes; experiment: Metabolite excretion by 1H-NMR, L. infantum; type: cell-based, Leishmania infantum; settings: IC25 concentration, 72 h, vs untreated
Method: Trypanosomatids catabolizes glucose at a high rate, excreting into the medium partly oxidized end products such as acetate, succinate, L-alanine or L-lactate.
Cultures of L. donovani, L. infantum and L. braziliensis promastigotes were seeded in culture flaks at 5 × 10^5 cells/mL, and after the addition of the compounds at IC25 concentrations at 28 °C. Control cultures were also included. After 72 h of incubation, parasites were centrifuged at 400 × g for 10 min, and supernatants were collected in order to determine the excreted metabolites by ^1H-NMR. Chemical shifts were expressed in parts per million (ppm) using sodium 2,2-dimethyl-2-silapentane-5-sulphonate as the reference signal. The One-dimensional ^1H-NMR spectra were acquired with a VARIAN DIRECT DRIVE 400 MHz Bruker spectrometer (Rheinstetten, Germany) with an AutoX probe using D2O as solvent. The chemical shifts used to identify the respective metabolites were consistent with those described previously by some of the authors. The spectral region of 1.0–5.5 ppm was bucketed into a frequency window of 0.1 ppm. The peak (2.6 ppm) corresponding to DMSO was removed before binning, and the regions corresponding to water (4.5–5.5 ppm) and glucose (3.4–3.8 ppm) were excluded during binning to avoid artefacts due to pre-saturation. […]

parasitic Fe-SOD = experiment: SOD inhibition assay, parasitic Fe-SOD of the Leishmania spp. taken together; type: biochemical
Method: The previous extraordinary results prompted us to evaluate the inhibitory effect of 3, 5–8 and 10 on the SOD activity. […] We used promastigotes of Leishmania spp. to obtain Fe-SOD by cellular disruption and precipitation and assayed the compounds at concentrations ranging from 100 µM to 0.1 µM in each case.
as §8

[13] = tested on: Leishmania braziliensis infection of J774.2 macrophages; experiment: Infectivity assay, L. braziliensis; type: cell-based; settings: IC25 concentration; last day of the experiment (day 10)
Method: as §6, §7

Compound | IC50 [1] [µM] | IC50 [2] [µM] | IC50 [3] [µM] | IC50 [4] [µM] | IC50 [5] [µM] | IC50 [6] [µM] | IC50 [7] [µM] | IC50 ([1]; Leishmania donovani) [µM] | IC50 ([2]; Leishmania infantum) [µM] | IC50 ([3]; Mus musculus) [µM] | IC50 ([4]; Leishmania infantum) [µM] | IC50 ([5]; Leishmania braziliensis) [µM] | IC50 ([6]; Leishmania braziliensis) [µM] | IC50 ([7]; Leishmania donovani) [µM] | ultrastructural alterations of L. braziliensis promastigotes (TEM) [8] | ultrastructural alterations of L. infantum promastigotes (TEM) [11] | IC50 (human CuZn-SOD) [µM] | further results
[Fe^II2(TACN2)(CH3CN)6](ClO4)4 [Compound 2] | 16.3 ± 2.5 | 52.6 ± 3.1 | 106 ± 8.8 | 57.5 ± 2.6 | 12.5 ± 1.5 | 37.2 ± 1.9 | 19.7 ± 1.7 | – | – | – | – | – | – | – | – | – | – | –
CN1CCN(C)CCN(Cc2ccccn2)CC1 [Compound 9] | – | – | – | – | – | – | – | 14.5 ± 2.7 | 71.7 ± 10 | 100 ± 4.8 | 33.4 ± 3.2 | 30.7 ± 2.5 | 53.2 ± 3.6 | 29.5 ± 3.6 | – | – | – | –
CN(Cc1ccccn1)C1CCCCC1N(C)Cc1ccccn1 (stereo not drawn) [Compound 8] | – | – | – | – | – | – | – | 1.9 ± 0.3 | 83 ± 9.9 | 268 ± 16.2 | 22.5 ± 3.1 | 21.7 ± 1.4 | 73.8 ± 3.6 | 31.7 ± 2.4 | round and lacked in ribosomes | most destructive compounds | > 250 | ultrastructural alterations of L. donovani promastigotes (TEM) [9]: expanded and disperse Golgi apparatus; day at which the decline in the infection rate appeared, L. infantum [10]: 0.5 days
CN1CCN(C)CCN(Cc2ccccn2)CC1.O=S(=O)([O-])C(F)(F)F.O=S(=O)([O-])C(F)(F)F.[Mn+2] [Compound 3] | 11.7 ± 1.3 | 8.5 ± 0.4 | 98.5 ± 6.3 | 3.7 ± 1.6 | 8.7 ± 0.6 | 9.3 ± 0.3 | 28.6 ± 3.5 | – | – | – | – | – | – | – | completely swollen, round and full of empty or lipid vacuoles | induced agglutination in the parasites | > 100 | Excretion variation ACETATE, L. infantum [12]: 18%; Excretion variation SUCCINATE, L. infantum [12]: 32%; IC50 (parasitic Fe-SOD): > 100 µM
meglumine antimoniate [Glucantime, reference compound] | 33.3 ± 3.7 | 18 ± 3.1 | 15.2 ± 1.3 | 24.2 ± 2.6 | 30.4 ± 6.1 | 25.6 ± 1.6 | 27.3 ± 4.3 | – | – | – | – | – | – | – | – | – | – | percentage of decrease in infection rate in comparison to the control, L. braziliensis [13]: 36%
CN1CCN(C)CCN(CCN2CCN(C)CCN(C)CC2)CC1 [Compound 11, TACN2] | – | – | – | – | – | – | – | 19.8 ± 2.6 | 87.5 ± 5.1 | 75.1 ± 4.7 | 34.6 ± 2.5 | 30.4 ± 1.3 | 60.6 ± 3.8 | 29.5 ± 4.1 | – | – | – | –
CN1CCN(C)CCN(Cc2ccccn2)CC1.O=S(=O)([O-])C(F)(F)F.O=S(=O)([O-])C(F)(F)F.[Fe+2] [Compound 1] | 12.5 ± 2.7 | 18.5 ± 1.6 | 37.9 ± 4.2 | 20.5 ± 1.8 | 21.3 ± 0.9 | 22.3 ± 0.6 | 28.6 ± 5.8 | – | – | – | – | – | – | – | – | – | – | –
c1ccc(CN2CCN(Cc3ccccn3)CCN(Cc3ccccn3)CC2)nc1 [Compound 10] | – | – | – | – | – | – | – | 11.6 ± 3.3 | 2.6 ± 0.7 | 126 ± 7.1 | 10.4 ± 0.1 | 11.9 ± 0.8 | 5.5 ± 0.8 | 18.6 ± 0.9 | shrunken or dehydrated | most destructive compounds | > 300 | ultrastructural alterations of L. donovani promastigotes (TEM) [9]: most lethal end result
